From US20250325529A1, “INHIBITORS OF FATTY ACID BINDING PROTEINS (FABPs), METHODS OF USE AND METHODS OF MAKING” (Celloram, inc., priority 2024, published 2025)
Entries after “also recorded” stand apart in the source; their conditions may differ.

Tests used:
PPARα = PPARα (Homo sapiens (Human), UniProt Q07869); experiment: Transcriptional activation assay in COS7 cells, PPARα; type: cell-based; conditions: PPRE luciferase reporter, PD151 and PD152 at 10 μM
Procedure, shortened: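 COS-7 cells co-transfected with a 3×PPRE-luciferase reporter, receptor expression vector and β-galactosidase control plasmid; 18 h post-transfection, moved to serum-free medium and treated with compound for 18 h. Luciferase read from lysates, normalised to β-galactosidase activity.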

BT-549 cells = experiment: Proliferation assay (Incucyte confluency), BT-549; type: cell-based; conditions: Homo sapiens, 96 h, 4 days, read-out: IC50, inhibition of proliferation
Procedure: COS-7, MDA-MB-231, and HepG2, were cultured in Dulbecco's modified Eagle's medium (DMEM) supplemented with 10% fetal bovine serum (Invitrogen Life Sciences, Carlsbad, CA). BT-549, OVCAR5 and OVCAR8 cells were cultured in L-Glutamine containing RPMI medium supplemented with 10% fetal calf serum (Invitrogen Life Sciences, Carlsbad, CA). The primary Human Mammary Epithelial Cells (HMEC) were cultured in mammary epithelial cell complete medium (basal medium plus rH-Insulin (5 μg/mL); L-Glutamine (6 mM); Epinephrine (1 μM); Apo-Transferrin (5 μg/mL); rH-TGF-α (0.5 ng/mL); ExtractP (0.4%); Hydrocortisone Hemisuccinate (100 ng/mL)).
2000 cells were plated in each well of 96-well plate. The next day cells were treated with compounds and incubated in Incucyte for 4 days. Images taken every 4 hours for the duration of the time were analyzed to calculate percentage of confluency in response to the treatments. Growth inhibition was calculated as 1—(percentage of viable cells out of untreated cells).

[1] = test system: Salmonella typhimurium tester strain TA1537; experiment: Ames test (Bacterial Reverse Mutation Test), TA1537; type: cell-based
Procedure: PD152 (compound 2) was tested for genotoxic and cytotoxic side effects by Ames test. The Ames test is a Bacterial Reverse Mutation Test of mutagenicity that utilizes Salmonella typhimurium tester strains TA98, TA100, TA1535, TA1537 and Escherichia coli tester strain WP2 uvrA (pKM101), both in the presence and absence of S9.
The compound PD152 was tested at 10 concentrations (0.032-1000 μg/plate) in the presence of, or absence of, the hepatic enzyme S9.
The aniline FABP4/5 inhibitor compound, 2-((2-((2,4-dichloro-5-isopropoxyphenyl)amino)-2-oxoethyl)thio)-2-methylpropanoic acid (compound “B104” as disclosed in WO2023043803A1) also was tested for genotoxic and cytotoxic side effects by Ames test. […]

[2] = Single dose IV and PO PK study in C57BL/6 mice; type: in vivo; conditions: male C57BL/6 mice
Procedure: C57BL/6 male mice or Han Wistar rats were used, n=3 for each administration route and compound. Single dose of each compound was administered orally (PO, 10 mg/Kg) or by intravenous administration (IV, 1 mg/Kg). Following intravenous and oral administration, blood samples (ca 0.2 mL) were collected and compound amount was measured by HLPC. For IV group, blood samples were collected at 0.083, 0.25, 0.5, 1, 2, 4, 6, 8, and 24 hours post-dose. For PO group, blood samples were collected at 0.25, 0.5, 1, 2, 4, 6, 8, and 24 hours post-dose.

[3] = TA1537, absence of S9, 0.0312 μg/plate
[4] = TA1537, absence of S9, 0.1 μg/plate
[5] = TA1537, absence of S9, 0.316 μg/plate
[6] = TA1537, absence of S9, 1 μg/plate
[7] = TA1537, absence of S9, 3.16 μg/plate
[8] = TA1537, absence of S9, 10 μg/plate
[9] = TA1537, absence of S9, 31.6 μg/plate
[10] = TA1537, absence of S9, 100 μg/plate
[11] = TA1537, absence of S9, 316 μg/plate
[12] = TA1537, absence of S9, 1000 μg/plate
[13] = TA1537, presence of S9, 0.0312 μg/plate
[14] = TA1537, presence of S9, 0.1 μg/plate
[15] = TA1537, presence of S9, 0.316 μg/plate
[16] = TA1537, presence of S9, 1 μg/plate
[17] = TA1537, presence of S9, 3.16 μg/plate
[18] = TA1537, presence of S9, 10 μg/plate
[19] = TA1537, presence of S9, 31.6 μg/plate
[20] = TA1537, presence of S9, 100 μg/plate
[21] = TA1537, presence of S9, 316 μg/plate
[22] = TA1537, presence of S9, 1000 μg/plate
[23] = mouse, plasma, intravenous 1 mg/kg

Sequence of PPARα (Q07869 whole entry, species assumed): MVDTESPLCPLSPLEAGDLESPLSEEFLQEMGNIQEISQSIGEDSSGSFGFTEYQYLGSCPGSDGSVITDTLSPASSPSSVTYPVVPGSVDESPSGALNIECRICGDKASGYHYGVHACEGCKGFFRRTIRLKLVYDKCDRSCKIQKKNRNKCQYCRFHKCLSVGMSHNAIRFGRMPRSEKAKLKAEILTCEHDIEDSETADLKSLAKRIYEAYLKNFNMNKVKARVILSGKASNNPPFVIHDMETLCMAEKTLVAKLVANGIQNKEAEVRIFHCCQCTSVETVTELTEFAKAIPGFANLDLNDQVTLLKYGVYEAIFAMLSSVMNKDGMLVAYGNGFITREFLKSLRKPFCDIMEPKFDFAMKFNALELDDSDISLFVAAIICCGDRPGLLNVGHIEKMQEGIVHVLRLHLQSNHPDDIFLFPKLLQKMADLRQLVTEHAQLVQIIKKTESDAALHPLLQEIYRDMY

CC(C)Oc1nc(NC(=O)CSCC(=O)O)c(Cl)cc1Cl [PD152, 2-((2-((3,5-dichloro-6-isopropoxypyridin-2-yl)amino)-2-oxoethyl)thio)acetic acid]
Activation of transcription by PPARα (PPARα): None of these tested compounds activated; also recorded: none of the tested compounds PD151 and PD152 activated transcription
IC50 (BT-549 cells): 1040 nM
Fold increase [1, 3]: 1
Mean number of revertants [1, 3]: 3
Fold increase [1, 4]: 1
Mean number of revertants [1, 4]: 3
Fold increase [1, 5]: 1
Mean number of revertants [1, 5]: 4
Fold increase [1, 6]: 1
Mean number of revertants [1, 6]: 3
Fold increase [1, 7]: 1
Mean number of revertants [1, 7]: 3
Fold increase [1, 8]: 1
Mean number of revertants [1, 8]: 3
Fold increase [1, 9]: 1
Mean number of revertants [1, 9]: 4
Fold increase [1, 10]: 1
Mean number of revertants [1, 10]: 3
Fold increase [1, 11]: 1
Mean number of revertants [1, 11]: 3
Fold increase [1, 12]: 1
Mean number of revertants [1, 12]: 3
Fold increase [1, 13]: 1
Mean number of revertants [1, 13]: 4
Fold increase [1, 14]: 1
Mean number of revertants [1, 14]: 3
Fold increase [1, 15]: 1
Mean number of revertants [1, 15]: 3
Fold increase [1, 16]: 1
Mean number of revertants [1, 16]: 3
Fold increase [1, 17]: 1
Mean number of revertants [1, 17]: 3
Fold increase [1, 18]: 1
Mean number of revertants [1, 18]: 4
Fold increase [1, 19]: 1
Mean number of revertants [1, 19]: 3
Fold increase [1, 20]: 1
Mean number of revertants [1, 20]: 3
Fold increase [1, 21]: 1
Mean number of revertants [1, 21]: 4
Fold increase [1, 22]: 1
Mean number of revertants [1, 22]: 4
Thalf ([2]; oral 10 mg/kg): 2.6 h
clearance [2, 23]: 16.1 mL/min/kg
half-life [2, 23]: 180 to 240 min
bioavailability ([2]; mouse, plasma, single oral dose 10 mg/kg): 75%
